Data on 36 compounds can be found in ChEMBL document CHEMBL1201862, “PubChem BioAssay data set” (2004).

Structures are written as SMILES.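 Assay format: 96-well plates, 48-hour exposure. Here, GI50 denotes the concentration required for 50% inhibition of growth.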 Activity calls are given as the source filed them. No stated cut-off is given here; in the data, active = GI50 up to about 1.1 µM and inactive = higher. Where only a bound is given, the exact number is not on record here.

The test system of the experiment is BT-549. As to the kind of experiment: NCI-60 cell line screen, 48 h.

Regarding `NC(C(=O)O)c1cc(O)no1` (stereo unspecified), the GI50 is > 42.5 µM (inactive). `O=C1NC(Nc2ccccc2Cl)=N/C1=C\c1c(Cl)cccc1Cl`: the GI50 is 34.1 µM (inactive). For `Cc1nn(C(=O)Cc2ccccc2)c2c1C(c1ccc([N+](=O)[O-])cc1)SC(=N)N2` (stereo unspecified) the value was > 100 µM (inactive).

With `OC1(c2ccccc2)C2CC=CC2C1(c1ccccc1)c1ccccc1` (stereo unspecified), the GI50 is 30.3 µM (inactive). Then `CN(C)CCNc1ccc([N+](=O)[O-])c2sc3ccccc3c(=O)c12`, with 2.1 µM (inactive). With `CCN(CC)CCN(C)CCc1ccc(Br)cc1`, the GI50 was 42.5 µM (inactive). Then `S=c1nc(N2CCCCC2)c2cn[nH]c2[nH]1`, with 26.1 µM (inactive); and `CC(C)NC(=O)CN1CCN(C2=CC(=O)c3c(O)ccc(O)c3C2=O)CC1`, with 17.7 µM (inactive); and `Cc1cc(N)c2cc(NC(=O)Nc3ccc4nc(C)cc(N)c4c3)ccc2n1`, with > 100 µM (inactive). For the compound `O=C(/C=C/c1ccc(C(F)(F)F)cc1)c1c([O-])on[n+]1-c1ccccc1`, the GI50 was 1.59 µM (inactive).

With `O=C1CC(c2ccccc2)Oc2ccccc21` (stereo unspecified) [FLAVANONE], the GI50 was 15.4 µM (inactive).

For `COc1ccc2c(c1)C(=O)OCCC2`, the GI50 is > 100 µM (inactive). For `COP(=O)(OC)C12CCOCCN1c1ccccc1C2=O` (stereo unspecified) the value was > 100 µM (inactive); for `C[N+]12CCCCC1C(CN1C(=O)c3ccccc3C1=O)CCC2` (stereo unspecified), > 100 µM (inactive). In the case of `Nc1nc(N)c2cc(-c3cc4ccccc4[nH]3)ccc2n1`, the GI50 is 23 µM (inactive). Then `COC(=O)C1=NN2c3ccccc3C(=O)OCCC2C1` (stereo unspecified), with > 100 µM (inactive); and `CCCCCCCCCCC/C=C(/C(=O)CCCO[Si](C)(C)C(C)(C)C)C(=O)OC`, with > 100 µM (inactive); and `O=C(OCc1ccccc1)C1(N2CN(C3(C(=O)OCc4ccccc4)CCCC3)CN(C3(C(=O)OCc4ccccc4)CCCC3)C2)CCCC1`, with > 10 µM (inactive). Then `Cc1cn(C2OC(CO)C(O)C2F)c(=O)[nH]c1=O` (stereo unspecified), with 87.1 µM (inactive).

Turning to `COc1ccc2nc3cc(Cl)ccc3c(Nc3ccc(O)c(CN4CCN(C)CC4)c3)c2c1`, the GI50 is 20.3 µM (inactive). For `N=c1oc2cc(O)ccc2cc1C(=O)Nc1cccc2ccccc12`, the GI50 was 2.43 µM (inactive).

As to `COc1cc(S(=O)(=O)Nc2ccc(-c3csc(/N=C\C=C\c4ccccc4)n3)cc2)ccc1Cl`, the GI50 was 39.1 µM (inactive).

Consider `CN1c2ccccc2C2=C(c3ccccc3)CC[C@@H](C(=O)N3C4CC5CC[C@@]4(CS3(=O)=O)C5(C)C)[C@@H]21` (stereo partly specified), for which the GI50 was > 100 µM (inactive). For `COC(=O)C1=C(C)N2[C@H](C(=O)O)CS[C@@]2(C)[C@H](C(=O)OC)[C@H]1c1cccc([N+](=O)[O-])c1` the value was > 100 µM (inactive); for `O=C(O)CC1(CC(=O)O)Nc2ccccc2SC1=O`, > 100 µM (inactive). For `NC1=Nc2ccccc2Sc2nncn21` the value was > 100 µM (inactive); for `COc1ccc(-c2cn3c(nc4ccccc43)c(/C=C/c3cccs3)n2)cc1`, 63 µM (inactive); for `COC(=O)Cc1c(-c2[nH]c3ccccc3c2CC(=O)OC)[nH]c2ccccc12`, > 57.1 µM (inactive). For `COC(=O)C(=O)C(C(=O)C(=O)Nc1ccc(Cl)c(Cl)c1)c1nc2ccc(C(=O)c3ccccc3)cc2nc1O` (stereo unspecified) the value was > 100 µM (inactive); for `NC1CC(Cl)c2c(Cl)sc(Cl)c21` (stereo unspecified), > 100 µM (inactive); for `OC(c1ccc(F)cc1)C(F)(F)c1nc2ccccc2o1` (stereo unspecified), > 100 µM (inactive). With `COc1ccc(C2CC(C)(O)Oc3cc4c(cc32)OCO4)cc1` (stereo unspecified), the GI50 is 17.3 µM (inactive).

Consider `c1ccc(CN2CCC3(CC2)SSC2(CCN(Cc4ccccc4)CC2)S3)cc1`, for which the GI50 was > 100 µM (inactive).

On to `O=[N+]([O-])C(=C(N1CCOCC1)N1CCOCC1)/C(Cl)=C(\Cl)Br`, for which the GI50 was 13.3 µM (inactive). Then `O=C(O)c1nc2ccc(Cl)cc2[nH]c1=O`, with > 100 µM (inactive); and `Nc1ncc2c(n1)-c1ccccc1OC2N1CCCCC1` (stereo unspecified), with > 100 µM (inactive).
